One test has as its system HIV-1 NIT strain. Description: anti-HIV activity test: reduction of immuno-fluorescent positive (viral antigen) cells in infected CD4+ CEM cells. The settings on record: Human immunodeficiency virus 1, CCRF-CEM, 96 h, concentration which reduces the number of immuno-fluorescent positive cells by 50%, MOI 1, four days after infection, read-out: IC₅₀. It counts as cell-based. How it is done: The compounds I were tested for the inhibition of HIV-cytopathic effect and the reduction of cell-associated viral antigens in an experiment run as follows:
High titer virus stocks (HIV-1 NIT strain) were grown in CD₄+ CR10 cells in RMPI-1640 media (Gibco Laboratories) supplemented with 10% fetal calf serum and 0.1 mg/ml Gentamicin. The collected media were filtered and the virus isolates were concentrated 100 fold and stored at -80°C. CD₄+ CEM cells, propagated in the same medium, were incubated for 60 minutes at 37°C with diluted stock virus at multiplicity of infection (MOI) equal to 1. Cells were washed with phosphate buffered saline and resuspended in the medium at 2 x 10⁵ cells/ml. Various quantities of the test compounds in DMSO were added. Four days after infection, the number of live cells were counted by trypan blue exclusion (Proc. Natl. Acad. Sci. 83, 1986, 1911). At the same time, aliquots of cells were fixed with acetone and stained with antibodies from AIDS patients, followed by a second staining with fluorescein-conjugated goat anti-human IgG (Cappel). Cells stained with the fluorescent antibody were counted using a fluorescence microscope and the results were expressed as percentage of the total number of cells counted (J. Med. Virol. 19, 1986, 325).
The results of this anti-HIV activity test, expressed in IC₅₀ (µM), i.e. the concentration of the test compound which reduces the number of immuno-fluorescent positive cells by 50%, are given in Table I below.

For another test, the system named is HIV-TAT. Put plainly: anti-HIV-TAT assay: SeAP reporter under HIV-LTR versus RSV-LTR in transfected COS cells. It counts as cell-based. The settings on record: 1-50 µM, specific inhibition of SeAP under HIV-LTR minus RSV-LTR, 48 hours after addition, average of at least three tests, grades not defined. How it is done: The compounds of formula I were also tested for anti-HIV-TAT activity in an assay comprising the following steps: • (a) putting both the expression of the Secreted Alkaline Phosphatase (SeAP) gene and the viral transactivator TAT gene under the control of the HIV promoter LTR responsive to the action of the HIV transactivator TAT; • (b) transfecting cultured mammalian cells with plasmids which contain the gene constructs of (a) above and cause cellular production of the transactivating factor TAT and SeAP; • (c) adding the agent to be tested, here the compounds of formula I; and determining the amount of SeAP produced, by measuring SeAP enzymatic activity, whereby inhibition of SeAP production correlates with the anti-TAT inhibition activity.
In this assay, the inhibition of SeAP positively correlates with anti-TAT activity. The greater the ability of an agent to inhibit SeAP, the greater is its anti-TAT activity.
Specifically, with respect to the results reported below, the anti-HIV-TAT assay was run as follows:
At 24 hours post transfection 1, 10, 25 and 50 µM of a test compound of formula I was added to the culture media of COS cells transfected with two plasmids, one containing the reporter gene which codes for SeAP under control of HIV-LTR, and the other containing the HIV-TAT gene also under control of HIV-LTR. The alkaline phosphatase activity of the media was assayed 48 hours after addition of test compound with a colorimetric assay using p-nitrophenylphosphate as the substrate.
The anti-HIV-TAT activities of the test compounds were determined by measuring the amount of alkaline phosphatase in the supernatant media of cultures of cells in which SeAP gene expression was under the control of the HIV LTR promoter. The specific inhibitory activities of the test compounds were calculated according to the formula: 100[(1-A/B)-(1-C/D)] [formula] where A and B are the alkaline phosphatase activites produced by HIV-LTR/SeAP in the presence and absence, respectively, of test compound, and C and D are the alkaline phosphatase activities produced by RSV-LTR/SeAP in the presence and absence, respectively, of test compound. The concentrations tested ranged from 1-50 µM. The results provided are the average of at least three tests. The test compound was added 24 hours after cells were transfected with the plasmids when SeAP specific mRNA and protein were already present and the protein was very stable. […]

Another test deals with T1, HIV-1 RT (Human immunodeficiency virus type 1 group M subtype B, UniProt P03366).
T1 construct: made in house
Description: HIV-1 RT inhibition with recombinant DNA-derived enzyme, poly(rA)·oligo(dT)10 template/primer, 3H-TTP incorporation. It counts as biochemical. How it is done:
Compounds of the present invention were also examined for their ability to inhibit HIV-1 RT using recombinant DNA-derived enzyme (S.F.J. Le Grice and F. Gruninger-Leitch, European Journal of Biochemistry 187:307-314 (1990)) in […] volume assay mixtures. Mixtures contained 50mM Tris-HCl (pH 8.0), 25mM KCl, 4mM MgCl₂, 5mM dithiothreitol (DTT), 0.05% Triton X-100, […] ³H-TTP (2Ci/mmol), 1mg poly(rA)·oligo(dT)₁₀ (20:1) as template/primer, test compound at the desired concentration, and an appropriate quantity of HIV RT, usually 0.01 to 0.1mg. The assay mixtures were incubated at 37°C for 10 minutes and the reactions were stopped by the addition of 10% trichloroacetic acid (TCA). Yeast RNA ([…] per reaction) was added and the reaction products were precipitated at 4°C for 30 minutes. TCA-precipitated material was collected by filtration and the bound radioactivity determined by counting using a liquid scintillation counter. The concentration of compound required to inhibit the activity of HIV-RT by fifty percent (IC₅₀) was determined from a multiple dose-effect analysis program (J. Chou and I. C. Chou, Dose Effect Analysis with Microcomputers, Elsevier Sciences Publishers, Amsterdam 1987).

Setting [1] is: recombinant HIV-1 RT, 37°C, 10 minutes, read-out: IC₅₀.

Each structure is given as a SMILES string. Where two headings read alike, the source gives them in different places.

For `OC1CCN(C2=Nc3ccc(Cl)cc3C(c3ccc[nH]3)=NC2)C1` (racemic) [3-OH-1-pyrrolidinyl, rac-1-[7-chloro-5-(1H-pyrrol-2-yl)-3H-1,4-benzodiazepin-2-yl]-3-pyrrolidinol], the IC50 in the test on HIV-1 NIT strain was 1 to 5 µM; at HIV-1 RT (setting [1]) it was 6.4 µM. The Anti-HIV-TAT activity entry in the test on HIV-TAT is reported as “High”.
On to `Clc1ccc2c(c1)C(c1ccc[nH]1)=NCC(N1CCNCC1)=N2` [1-piperazinyl, 7-chloro-2-(1-piperazinyl)-5-(1H-pyrrol-2-yl)-3H-1,4-benzodiazepine], for which the Anti-HIV-TAT activity entry in the test on HIV-TAT is listed as “Low”. Besides, the IC50 on HIV-1 RT (setting [1]) came to 18 µM.
Take `Clc1ccc2c(c1)C(c1ccc[nH]1)=NCC(N1CCCCC1)=N2` [1-piperidinyl, 7-chloro-2-(1-piperidinyl)-5-(1H-pyrrol-2-yl)-3H-1,4-benzodiazepine]: the IC50 is 2 µM with HIV-1 NIT strain and 10.4 µM on HIV-1 RT (setting [1]). Besides, the Anti-HIV-TAT activity entry in the test with HIV-TAT is “Medium/High”.
The corresponding values for `Clc1ccc2c(c1)C(c1ccc[nH]1)=NCC(N1CCCC1)=N2` [1-pyrrolidinyl, 7-chloro-5-(1H-pyrrol-2-yl)-2-(1-pyrrolidinyl)-3H-1,4-benzodiazepine] are 0.8 to 5 µM, 10.2 µM and “Medium/High”.
On to `CCN(CC)C1=Nc2ccc(Cl)cc2C(c2ccc[nH]2)=NC1` [N(CH₂CH₃)₂, 7-chloro-N,N-diethyl-5-(1H-pyrrol-2-yl)-3H-1,4-benzodiazepin-2-amine], for which the Anti-HIV-TAT activity result with HIV-TAT is recorded as “Low/Medium”.
Regarding `CN(C)C1=Nc2ccc(Cl)cc2C(c2ccc[nH]2)=NC1` [N(CH₃)₂, 7-chloro-N,N-dimethyl-5-(1H-pyrrol-2-yl)-3H-1,4-benzodiazepin-2-amine], the IC50 was 1 to 3 µM in the test on HIV-1 NIT strain and 7.3 µM on HIV-1 RT. The Anti-HIV-TAT activity result in the test with HIV-TAT is listed as “Medium/High”.
On the same counts, the results for `Clc1ccc2c(c1)C(c1ccc[nH]1)=NCC(NC1CC1)=N2` [NH(cyclopropyl), 7-chloro-N-cyclopropyl-5-(1H-pyrrol-2-yl)-3H-1,4-benzodiazepin-2-amine] are 0.8 µM, 5.4 µM and “Medium”.
As to `COC(CNC1=Nc2ccc(Cl)cc2C(c2ccc[nH]2)=NC1)OC` [NHCH₂CH(OCH₃)₂, 7-chloro-N-(2,2-dimethoxyethyl)-5-(1H-pyrrol-2-yl)-3H-1,4-benzodiazepin-2-amine], in the test with HIV-1 NIT strain, the IC50 lay in the range of 1 to 5 µM. Further, the Anti-HIV-TAT activity entry with HIV-TAT was “Medium/High”.
Take `C=CCNC1=Nc2ccc(Cl)cc2C(c2ccc[nH]2)=NC1` [NHCH₂CH=CH₂, 7-chloro-N-(2-propenyl)-5-(1H-pyrrol-2-yl)-3H-1,4-benzodiazepin-2-amine]: the Anti-HIV-TAT activity entry in the test with HIV-TAT is listed as “Low”. Also, the IC50 at HIV-1 RT amounted to 4.2 µM.
As to `NCCNC1=Nc2ccc(Cl)cc2C(c2ccc[nH]2)=NC1` [NHCH₂CH₂NH₂, N-[7-chloro-5-(1H-pyrrol-2-yl)-3H-1,4-benzodiazepin-2-yl]-1,2-ethanediamine], the Anti-HIV-TAT activity entry in the test on HIV-TAT is “Medium”.
Consider `OCCNC1=Nc2ccc(Cl)cc2C(c2ccc[nH]2)=NC1` [NHCH₂CH₂OH, 7-chloro-N-(2-hydroxyethyl)-5-(1H-pyrrol-2-yl)-3H-1,4-benzodiazepin-2-amine], for which the IC50 is 2 to 5 µM with HIV-1 NIT strain and 8.9 µM on HIV-1 RT. The Anti-HIV-TAT activity entry in the test with HIV-TAT is “Medium”.
`C#CCNC1=Nc2ccc(Cl)cc2C(c2ccc[nH]2)=NC1` [NHCH₂C≡CH, 7-chloro-N-(2-propynyl)-5-(1H-pyrrol-2-yl)-3H-1,4-benzodiazepin-2-amine]: the IC50 at HIV-1 RT worked out at 2 µM.
With `Clc1ccc2c(c1)C(c1ccc[nH]1)=NCC(NCc1ccccc1)=N2` [NHCH₂Ph, 7-chloro-N-(phenylmethyl)-5-(1H-pyrrol-2-yl)-3H-1,4-benzodiazepin-2-amine], the results for the IC50 in the test with HIV-1 NIT strain and at HIV-1 RT were 3 µM and 2.6 µM, respectively. Further, the Anti-HIV-TAT activity entry in the test on HIV-TAT was “Low/Medium”.
As to `NNC1=Nc2ccc(Cl)cc2C(c2ccc[nH]2)=NC1` [NHNH₂, 7-chloro-2-hydrazino-5-(1H-pyrrol-2-yl)-3H-1,4-benzodiazepine], in the test on HIV-1 NIT strain, the IC50 came out at 1 µM. The Anti-HIV-TAT activity entry in the test on HIV-TAT is “High”.
`Clc1ccc2c(c1)C(c1ccc[nH]1)=NCC(Nc1ccccc1)=N2` [NHPh, 7-chloro-N-phenyl-5-(1H-pyrrol-2-yl)-3H-1,4-benzodiazepin-2-amine]: at HIV-1 RT, the IC50 was 15.8 µM.
`COC1=Nc2ccc(Cl)cc2C(c2ccc[nH]2)=NC1` [OCH₃, 7-chloro-2-methoxy-5-(1H-pyrrol-2-yl)-3H-1,4-benzodiazepine]: the values for the IC50 in the test with HIV-1 NIT strain and at HIV-1 RT were 1 µM and 1.5 µM, respectively. For the same compound, in the test with HIV-TAT, the Anti-HIV-TAT activity result is recorded as “Medium”.
Turning to `CSC1=Nc2ccc(Cl)cc2C(c2ccc[nH]2)=NC1` [SCH₃, 7-chloro-2-(methylthio)-5-(1H-pyrrol-2-yl)-3H-1,4-benzodiazepine], the IC50 is 5 to 10 µM in the test on HIV-1 NIT strain and 1.6 µM on HIV-1 RT. The Anti-HIV-TAT activity result with HIV-TAT is “Low/Medium”.

The values are drawn from patent EP0475231A1, “Benzodiazepines” (priority 1990, dated 1992).
